# pEC50, pIC50: −log10 of the molar value. Read-outs that look alike come from different tables or passages of the source.
# Tests used:
# human DGKζ = target: T1, human DGKζ (Homo sapiens, UniProt Q13574); assay: DGKζ LIPGLO assay (extruded liposome substrate), in vitro DGK inhibition; type: biochemical; conditions: read-out: DGKz LIPGLO IC50
# T1 construct: TVMV protease cleavage site (C); Hexa-His (C); made in house; host or cells: Sf9 insect cells (baculovirus, Bac-to-Bac)
# Human venous whole blood = assay: Human whole blood IFN-γ assay; type: cell-based; conditions: human whole blood, read-out: INFg Whole Blood Normalized Agonist EC50;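 further: blood from healthy donors exposed to compound for 1 h before stimulation with anti-CD3 and anti-CD28 at 1 µg/mL each, IFN-γ quantified in supernatant by AlphaLISA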
# human DGKα = target: T2, human DGKα (Homo sapiens, UniProt P23743); assay: DGKα LIPGLO assay (extruded liposome substrate), in vitro DGK inhibition; type: biochemical; conditions: read-out: DGKa LIPGLO IC50
# T2 construct: TVMV protease cleavage site (C); Hexa-His (C); made in house; host or cells: Sf9 insect cells (baculovirus, Bac-to-Bac)
# T2 sequence (P23743 with tags, fused parts or gaps): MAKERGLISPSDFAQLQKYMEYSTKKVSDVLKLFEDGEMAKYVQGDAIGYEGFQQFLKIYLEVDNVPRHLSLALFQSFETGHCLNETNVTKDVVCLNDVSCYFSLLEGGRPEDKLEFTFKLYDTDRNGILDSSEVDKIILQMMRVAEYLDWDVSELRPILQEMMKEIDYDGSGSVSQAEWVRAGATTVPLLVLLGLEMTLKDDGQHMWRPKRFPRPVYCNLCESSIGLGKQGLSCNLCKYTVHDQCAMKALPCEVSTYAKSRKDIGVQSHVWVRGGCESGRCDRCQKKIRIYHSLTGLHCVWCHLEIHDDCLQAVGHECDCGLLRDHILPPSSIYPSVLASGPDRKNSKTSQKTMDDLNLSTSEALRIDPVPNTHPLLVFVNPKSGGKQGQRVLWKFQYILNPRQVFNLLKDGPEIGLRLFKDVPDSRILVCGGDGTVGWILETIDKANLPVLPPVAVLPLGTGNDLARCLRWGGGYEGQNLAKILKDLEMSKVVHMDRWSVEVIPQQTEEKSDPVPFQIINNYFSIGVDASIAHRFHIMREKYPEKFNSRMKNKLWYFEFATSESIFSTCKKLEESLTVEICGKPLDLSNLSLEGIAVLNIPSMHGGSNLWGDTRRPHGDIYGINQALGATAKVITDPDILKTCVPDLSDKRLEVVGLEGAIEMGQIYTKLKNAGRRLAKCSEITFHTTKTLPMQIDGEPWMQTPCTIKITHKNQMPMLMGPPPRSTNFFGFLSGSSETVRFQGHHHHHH
# [1] = Homo sapiens, 24 h, normalized to 3 μM reference compound with anti-CD3 plus anti-CD28 as 100% activation
# [2] = normalized to 3 μM reference compound with anti-CD3 plus anti-CD28 as 100% activation
# [3] = anti-CD3 plus anti-CD28, 24 hours, 3 μM reference compound = 100% activation
# [4] = Homo sapiens, 24 h, anti-CD3 plus anti-CD28, 24 hours, 3 μM reference compound = 100% activation
# T1 sequence (Q13574 with tags, fused parts or gaps isoform Q13574-4): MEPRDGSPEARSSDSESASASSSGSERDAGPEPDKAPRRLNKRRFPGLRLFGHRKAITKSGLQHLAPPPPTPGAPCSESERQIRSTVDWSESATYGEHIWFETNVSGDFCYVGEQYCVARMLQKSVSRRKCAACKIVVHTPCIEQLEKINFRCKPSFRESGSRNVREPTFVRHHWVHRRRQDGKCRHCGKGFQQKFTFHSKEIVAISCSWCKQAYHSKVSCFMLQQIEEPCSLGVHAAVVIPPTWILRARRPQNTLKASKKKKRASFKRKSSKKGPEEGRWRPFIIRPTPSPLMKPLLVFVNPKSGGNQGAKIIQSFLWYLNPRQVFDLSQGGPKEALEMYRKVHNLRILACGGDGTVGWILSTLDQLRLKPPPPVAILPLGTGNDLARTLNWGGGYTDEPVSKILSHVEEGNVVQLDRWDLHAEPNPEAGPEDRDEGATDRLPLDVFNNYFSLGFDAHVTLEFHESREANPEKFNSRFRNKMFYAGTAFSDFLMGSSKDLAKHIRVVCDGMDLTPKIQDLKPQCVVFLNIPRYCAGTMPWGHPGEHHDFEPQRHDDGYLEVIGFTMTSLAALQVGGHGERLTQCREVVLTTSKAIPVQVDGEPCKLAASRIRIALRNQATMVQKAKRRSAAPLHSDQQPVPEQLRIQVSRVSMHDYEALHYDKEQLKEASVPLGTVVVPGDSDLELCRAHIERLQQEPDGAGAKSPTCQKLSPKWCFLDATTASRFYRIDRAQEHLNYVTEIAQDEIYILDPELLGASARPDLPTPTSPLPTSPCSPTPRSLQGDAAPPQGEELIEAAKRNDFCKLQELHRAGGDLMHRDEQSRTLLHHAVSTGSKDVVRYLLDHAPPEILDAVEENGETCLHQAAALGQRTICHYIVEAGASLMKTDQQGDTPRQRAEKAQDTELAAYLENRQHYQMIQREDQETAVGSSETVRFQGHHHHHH
pIC50 (human DGKζ; liposome (LIPGLO) assay),pIC50 (human DGKα; liposome (LIPGLO) assay),pIC50 (human DGKζ; DGKζ liposome (LIPGLO) assay),pIC50 (human DGKα; DGKα liposome (LIPGLO) assay),SMILES,pEC50 (Human venous whole blood; [1]),pEC50 (Human venous whole blood; [2]),pEC50 (Human venous whole blood; [3]),pEC50 (Human venous whole blood; [4])
6.21,6.28,,,CC[C@@H]1CN(c2cc(=O)n(C)c3ccc(C#N)nc23)[C@@H](C)CN1Cc1ccc(OC(F)(F)F)c(F)c1 [Example 1332],5.36,,,
5.57,6.07,,,"CCC(c1ccc(C2CC2)cc1)N1C[C@H](C)N(c2cc(=O)n(C)c3ccc(C#N)nc23)C[C@H]1C (single isomer, unassigned) [Example 1221]",,5.38,,
,,5.77,6.20,Cc1ccc(C(c2ccc(F)cn2)N2CCN(c3c(C#N)c(=O)n(C)c4ccc(C#N)nc34)C[C@H]2C)cc1 (stereo partly drawn) [Example 899],,,6.00,
,,4.26,6.04,"CC(c1ccc(Cl)cc1)N1CCN(c2c(C#N)c(=O)n(C)c3ccc(C#N)nc23)C[C@H]1C (single isomer, unassigned) [Example 979]",,,,4.70
< 3.60,3.89,,,C[C@@H]1CN(c2cc(=O)n(C)c3ccc(C#N)nc23)[C@@H](C)CN1CC1CCOCC1 [Example 623],4.70,,,
6.15,5.38,,,"COC[C@@H]1CN(c2cc(=O)n(C)c3ccc(C#N)nc23)[C@@H](C)CN1C(c1ccc(F)cc1)c1ccc(C#N)cc1 (single isomer, unassigned) [Example 1157]",6.57,,,
5.70,4.89,,,"Cc1cccc(C(c2cccc(F)c2)N2C[C@H](C)N(c3cc(=O)n(C)c4ccc(C#N)nc34)C[C@H]2C)n1 (single isomer, unassigned) [Example 470]",6.43,,,
6.14,5.27,,,C[C@@H]1CN(c2cc(=O)n(C)c3ccc(C#N)nc23)[C@@H](C)CN1C(c1ccc(F)cc1)c1cccc(C(F)(F)F)n1 (stereo partly drawn) [Example 679],,5.89,,
7.37,7.44,,,"CC[C@H]1CN(C(c2cccc(F)c2)c2ccc(F)cn2)[C@H](CC)CN1c1cc(=O)n(C)c2ccc(C#N)nc12 (single isomer, unassigned) [Example 1041]",6.64,,,
5.96,6.08,,,"C[C@@H]1CN(c2c(F)c(=O)n(C)c3ccc(C#N)nc23)[C@@H](C)CN1C(c1ccc(F)cc1)c1ccccc1F (stereo partly drawn) [Example 333, 7-fluoro-8-((2S,5R)-4-((2-fluorophenyl)(4-fluorophenyl)methyl)-2,5-dimethylpiperazin-1-yl)-5-methyl-6-oxo-5,6-dihydro-1,5-naphthyridine-2-carbonitrile]",5.92,,,
,,5.25,5.49,Cc1cc(CN2CCN(c3c(C#N)c(=O)n(C)c4ccc(C#N)nc34)C[C@H]2C)ccc1F [Example 995],,,,5.60
,,5.15,5.70,"Cc1cc(C(C)N2C[C@H](C)N(c3c(C#N)c(=O)n(C)c4ccc(C#N)nc34)C[C@H]2C)no1 (single isomer, unassigned) [Example 803]",,,,4.70
,,5.59,5.30,C[C@@H]1CN(c2c(C#N)c(=O)n(C)c3ccc(C#N)nc23)[C@@H](C)CN1C(c1ccccc1)c1ccc(F)cc1 (stereo partly drawn) [Example 807],,,,5.60
,,4.49,5.16,"Cc1cc(C(C)N2C[C@H](C)N(c3c(C#N)c(=O)n(C)c4ccc(C#N)nc34)C[C@H]2C)no1 (single isomer, unassigned) [Example 804]",,,4.70,
7.74,5.74,,,"COCc1cc(C(C)N2C[C@H](C)N(c3cc(=O)n(C)c4ccc(C#N)nc34)C[C@H]2C)ccc1F (single isomer, unassigned) [Example 1316]",5.35,,,
,,5.59,5.03,"CCc1ccc(C(c2ccc(F)cc2)N2C[C@H](C)N(c3c(C#N)c(=O)n(C)c4ccc(C#N)nc34)C[C@H]2C)cc1 (single isomer, unassigned) [Example 811]",,,,5.68
5.82,5.89,,,"CC(c1ccc(C(F)(F)F)cc1)N1C[C@@H](C)N(c2cc(=O)n(C)c3ccc(C#N)nc23)C[C@@H]1C (single isomer, unassigned) [Example 346]",,5.96,,
,,< 3.60,< 3.60,"CC(c1ccccc1C(F)(F)F)N1CCN(c2c(C#N)c(=O)n(C)c3ccc(C#N)nc23)C[C@H]1C (single isomer, unassigned) [Example 968]",,,4.70,
6.14,6.49,,,"C[C@@H]1CN(c2cc(=O)n(C)c3ccc(C#N)nc23)[C@@H](C)CN1C(c1ccc(F)cc1)c1nccs1 (single isomer, unassigned) [Example 712]",,5.55,,
6.24,5.21,,,"COc1cc(F)ccc1C(C)N1C[C@H](C)N(c2cc(=O)n(C)c3ccc(C#N)nc23)C[C@H]1C (single isomer, unassigned) [Example 1237]",,4.92,,
5.09,5.74,,,"C[C@@H]1CN(c2cc(=O)[nH]c3ccc(C#N)nc23)[C@@H](C)CN1C(c1ccc(F)cc1)c1ccc(C#N)cc1 (single isomer, unassigned) [Example 1337]",5.57,,,
5.10,5.77,,,C[C@@H]1CN(c2cc(=O)n(C)c3ccc(C#N)nc23)[C@@H](C)CN1C(c1ccc(O)cc1)C(F)(F)F (stereo partly drawn) [Example 626],5.60,,,
4.64,4.59,,,"CC(c1ccc(-n2cncn2)cc1)N1C[C@H](C)N(c2cc(=O)n(C)c3ccc(C#N)nc23)C[C@H]1C (single isomer, unassigned) [Example 1239]",,4.70,,
6.85,7.68,,,"CC[C@H]1CN(C(C)c2ccc(OC(F)(F)F)cc2)[C@H](CC)CN1c1cc(=O)n(C)c2ccc(C#N)nc12 (single isomer, unassigned) [Example 1053]",,6.68,,
6.19,6.70,,,"CCC(c1ccc(OCC2CC2)cc1)N1C[C@H](C)N(c2cc(=O)n(C)c3ccc(C#N)nc23)C[C@H]1C (stereo partly drawn) [Example 1439, 8-((2S,5R)-4-(1-(4-(cyclopropylmethoxy)phenyl)propyl)-2,5-dimethylpiperazin-1-yl)-5-methyl-6-oxo-5,6-dihydro-1,5-naphthyridine-2-carbonitrile]",6.60,,,
5.57,5.77,,,"CC(c1ccc(OC(F)(F)F)c(F)c1)N1C[C@H](C)N(c2cc(=O)n(C)c3ccc(C#N)nc23)C[C@H]1C (single isomer, unassigned) [Example 1270]",,5.10,,
4.68,5.17,,,C[C@@H]1CN(c2cc(=O)n(C)c3ccc(C#N)nc23)[C@@H](C)CN1Cc1ccc(OC(F)(F)F)c(Cl)c1 [Example 611],5.43,,,
6.55,4.92,,,"C[C@@H]1CN(c2cc(=O)n(C)c3ccc(C#N)nc23)[C@@H](C)CN1C(c1ccc(F)cc1)c1cccc2ccnn12 (single isomer, unassigned) [Example 695]",5.31,,,
6.32,6.32,,,"CC[C@H]1CN(C(C)c2ccc(C(F)(F)F)cc2F)[C@H](CC)CN1c1cc(=O)n(C)c2ccc(C#N)nc12 (single isomer, unassigned) [Example 1365]",,5.66,,
< 3.60,< 3.60,,,"C[C@@H]1CN(c2cc(=O)n(C)c3ccc(C#N)nc23)[C@@H](C)CN1C(c1ccc(F)cc1)c1ccc(N2CCOCC2)cc1 (single isomer, unassigned) [Example 662]",4.70,,,
